From patent US20170237129A1, “Quaternary Ammonium Halides With Ether Functional Groups For Use As Battery Electrolytes” (Albemarle Corporation, priority 2014, published 2017)

Assays:
Format in all cases: physicochemical
[1] = Measurement of free bromine in aqueous phase; conditions: stirred 24 hrs, top aqueous phase, wt %
Excerpt: The forward operation of a bromine-containing battery generally involves the conversion of elemental bromine to ionic bromine. The quat/Br2 complex results from an equilibrium reaction in which the Br2 is released from the complex as the concentration of free Br2 in the aqueous electrolyte drops during battery operation. In its fully charged state, the electrolyte solution inevitably contains some degree of uncomplexed bromine. A measure of a quat's ability to complex elemental bromine is the amount of elemental bromine left in solution when the complexation reaction proceeds to equilibrium. Such bromine is referred to as “free bromine.” Measurement of free bromine in aqueous phase is set forth in Example 1.
Two slightly different methods were used to prepare the electrolyte compositions, A) one containing 0.7M quat and B) the other containing 0.8M quat. In composition A, 2.0 moles of bromine was added to an aqueous solution containing 0.5 moles of zinc bromide and 0.7 moles of the quat. The two-phase mixture was stirred for 24 hrs. and then the phases were allowed to settle. The top aqueous phase was sampled for free bromine measurement. In composition B, 1.44 moles of bromine was added to an aqueous solution containing 0.5 moles of zinc bromide, 0.4 moles of zinc chloride and 0.8 moles of the quat. The top aqueous phase obtained after stirring for 24 hrs. was used for free bromine measurement.
A 250-ml Erlenmeyer flask was charged with 50 ml of deionized water and weighed (A). A sample of the clear aqueous phase was passed through glass wool to remove any suspended organic phase and then added to the Erlenmeyer flask. The flask was weighed again (B) and the difference in weight (B-A) was noted as the weight of the sample. About 20 ml of 20% potassium iodide solution followed by about 5 ml of starch solution was added to the flask. The resulting dark mixture was titrated against 0.02N sodium thiosulfate solution. The end-point was the disappearance of purple color. Free bromine (wt %) was calculated in the following manner:
Wt % free Br2=Volume (ml) of sodium Thiosulfate×Normality of Sodium thisosulfate/Sample Weight.

[2] = Cloud point determination; conditions: 0.7M quat in 2.5M zinc bromide water solution
Procedure: By “cloud point” is meant the cloud point of an aqueous solution containing 0.7 M complexing agent and 2.5 M zinc bromide.
A 0.7M quaternary ammonium bromide in 2.5M Zinc Bromide water solution was prepared. • 2. The solution was transferred to a jacketed flask with a stirring bar and temperature monitor. • 3. The solution was warmed to 15° C. above the expected cloud point. If necessary, any moisture or impurities were removed by filtration. • 4. The solution was stirred, with speed adjustment to about 250 rpm, while avoiding the formation of bubbles. • 5. The solution was cooled gradually (cooling rate of about 1° C./5 min). • 6. The sample was inspected carefully for signs of cloudiness, and the temperature at which cloudiness was observed was recorded to the nearest 0.1° C.

[3] = Free bromine in electrolyte with chloroquat or bromoquat (Example 8); conditions: 0.84 M zinc bromide, 0.8 M quat, 1.44 M bromine; stirred 24 hrs at 35° C.
Procedure: Chloride ions are added to the electrolyte in amounts sufficient to reduce the amount of free bromine present and increase the electrolyte conductivity during charging of the cell, Chloride ions in the electrolyte may come from zinc chloride or quaternary ammonium chloride complexing agent. Experiment 1 of Example 8: An aqueous electrolyte system was prepared having 0.84 M zinc bromide, 0.8 M chioroquat (N-methyl, N-butyl pyrrolidinium chloride) and 1.44 M bromine. After the sample was stirred for 24 hrs at 35° C., the amount of free bromine present in the electrolyte was 0.26%. Experiment 2 of Example 8: An aqueous electrolyte system was prepared having 0.84 M zinc bromide, 0.8 M bromoquat (N-methyl, N-butyl pyrrolidinium bromide) and 1.44 M bromine. After the sample was stirred for 24 hrs at 35° C., the amount of free bromine present in the electrolyte was 0.25%.

[4] = 0.7M quat (composition A: 2.0 moles bromine, 0.5 moles zinc bromide, 0.7 moles quat)
[5] = 0.8M quat (composition B: 1.44 moles bromine, 0.5 moles zinc bromide, 0.4 moles zinc chloride, 0.8 moles quat)

## CCCC[N+](C)(C)CCOC.[Br-] [Compound 1, Dimethylbutylether Quat Bromide]
[1]; [4]
  Free Br2: 0.7M 0.28%
[2]
  Solubility in ZnBr2 Cloud Point: 0.7M, 29 C.

## CC[N+](CC)(CC)CCOC.[Br-] [Compound 2, (2-methoxyethyl)-triethylammonium bromide]
[1]; [4]
  Free Br2: 0.7M 0.658%
[1]; [5]
  Free Br2: 0.8M 0.467%
[2]
  Solubility in ZnBr2 Cloud Point: 0.7M, <-10.5 C.

## CC[N+](C)(CC)CCOC.[Br-] [Compound 4, diethylmethyl-(2-methoxyethyl)ammonium bromide]
[1]; [4]
  Free Br2: 0.7M 0.70%
[2]
  Solubility in ZnBr2 Cloud Point: 0.7M, <-10.5 C.

## CCC[N+](CC)(CC)CC.[Br-] [Compound 5, triethylpropylammonium bromide]
[1]; [4]
  Free Br2: 0.7M 0.089%
[1]; 0.7M quat (composition A: 2.0 moles bromine, 0.5 moles zinc bromide, 0.7 moles quat), listed as compound 5
  Free Br2: 0.089%
[2]
  Solubility in ZnBr2 Cloud Point: 0.7M, 41.2 C.

## CC[N+]1(CC)CCCCC1.[Br-] [Compound 9, Diethyl Piperidinium Bromide]
[1]; [5]
  Free Br2: 0.8M 0.26%
[1]; 0.8M quat (composition B: 1.44 moles bromine, 0.5 moles zinc bromide, 0.4 moles zinc chloride, 0.8 moles quat), listed as compound 9
  Free Br2: 0.26%
[2]
  Solubility in ZnBr2 Cloud Point: 0.7M, 11.9 C.

## CCC[N+]1(CC)CCCCC1 [Compound 10, EthyPropyl Piperidinium Bromide]
[1]; [5]
  Free Br2: 0.8M 0.026%
[1]; 0.8M quat (composition B: 1.44 moles bromine, 0.5 moles zinc bromide, 0.4 moles zinc chloride, 0.8 moles quat), listed as compound 10
  Free Br2: 0.026%
[2]
  Solubility in ZnBr2 Cloud Point: 0.7M, 45.8 C.

## CCCC[N+]1(C)CCCC1.[Br-] [bromoquat, N-methyl, N-butyl pyrrolidinium bromide]
[3]
  amount of free bromine present in the electrolyte: 0.25%

## CCCC[N+]1(C)CCCC1.[Cl-] [chioroquat, N-methyl, N-butyl pyrrolidinium chloride]
[3]
  amount of free bromine present in the electrolyte: 0.26%
